# According to patent US20100286250A1, “FLUORINATED LIPIDS AND METHODS OF USE” (TUFTS UNIVERSITY, priority 2007, published 2010):
# System: HeLa cells
# Assay: Fluorescence assay of HeLa cells incubated with lipid conjugates (microtiter plate reader)
# Format: cell-based
# Settings: preformed complexes, washed with PBS
# Method: General Procedure for Incubation of Cells with Compounds: Cells were cultured in DMEM/RPMI medium supplemented with 10% fetal bovine serum and 1% penicillin/streptomycin. Cells were suspended in phosphate buffered saline (PBS), incubated with an ethanolic solution of lipid conjugates for 1-2 h at 4 or 37° C. to give a final concentration in each well of 0.01-100 μM in a total volume of 100 μL (10% EtOH). After the incubation period, cells were pelleted by centrifugation and washed (2×) and resuspended in 100 μL PBS and analyzed.
# ATP Depletion: Cells were pretreated with 4 mM NaN3/0.8 mM NaF in 100 μL PBS for 30 m at 37° C. The cells were then washed with PBS (2×100 μL) and incubated with 100 μM ethanolic solutions of lipids for 2 h (total volume 100 μL, 10% EtOH). Analysis was carried out as described previously.
# Incubation under Hypertonic Conditions: Cells were pretreated with 0.3 M sucrose for 30 min at 37° C. in PBS, and were then incubated with lipid solutions. Analysis was carried out as described previously.
# Fluorescence Assay: After the incubation period, HeLa cells in PBS were analyzed using an Infinite™ 200 series microtiterplate reader (Tecan Systems, Inc.). All experiments were carried out in 96 well plates with six replicates. The plates were pretreated with 1% BSA for 12 h at 4° C. to minimize non-specific binding.
substance,measurement,value
AF: avidin conjugated to fluorescein isothiocyanate [reference compound],delivery of AF into the cell (microscopy or fluorescence counting),minimally fluorescent
